# Experimental data taken from US20180147175A1, “COMPOSITIONS AND METHODS FOR TREATMENT OF MOVEMENT DISORDERS” (ULTRAGENYX PHARMACEUTICAL INC., priority 2015, published 2018).
# Entries after “also recorded” stand apart in the source; their conditions may differ.
# Experiments:
# [1] = system: GLUT1-DS patients with non-epileptic paroxysmal manifestations; assay: Open-label pilot study in GLUT1-DS patients: paroxysmal events diary and clinical scales; assay type: in vivo, human
# Excerpt: This example describes an open-label pilot study with four phases of 2 months each (baseline, treatment […], and resumption of treatment) in eight GLUT1-DS patients (7-47 years old) with non-epileptic paroxysmal manifestations.
# Participants were enrolled in an interventional clinical protocol. Four children and four adults with GLUT1-DS were enrolled. […] All patients were on a normal diet prior to their enrollment. As noted above, the study was divided into four phases of 2 months each (baseline, treatment, withdrawal, and resumption of treatment). A trained dietitian determined patients' caloric intake and adapted the daily menus so the diets remained isocaloric when triheptanoin was introduced.
# A comprehensive diary was kept for each patient to record all motor and non-motor paroxysmal events—including dystonia, tremor, speech disorder, stiffness, paresis, headaches, confusion, and lethargy. At each visit, patients were evaluated with a six minute walk test (6MWT), a nine-hole pegboard test (NHPT), the clinical global impression-improvement scale (CGI-I) and a fatigue severity scale (KFFS or visual analogue scale for patients <15 years old). Blood samples were collected after an overnight fast for standard analyses, and the measurement of plasma C3-carnitine and C5-ketone bodies (Mochel et al., 2005, Molecular Genetics and Metabolism 84: 305-312).
# (§1) Paired t-tests were used for plasma analyses before and after treatment. For clinical parameters, Friedman tests were used to test the global hypothesis that all study phases were equal. If significant, Wilcoxon signed-rank tests were applied for pair-wise phase comparisons with an alpha of 0.05. For the Pi/PCr ratio, repeated measures ANOVA were used to test the global hypothesis that all time points—rest, activation and recovery—were equal. If significant, paired t-tests were applied for pair-wise time comparisons with an alpha of 0.05.
# [2] = system: brain response to cortical activation; assay: Functional 31P-NMR spectroscopy (f-MRS) of brain, Pi/PCr ratio during visual activation; assay type: in vivo, human
# Procedure: Functional ^31P-NMR spectroscopy (f-MRS) was performed at 3 T at the end of each study phase in patients >15 years old (n=5). Data were collected for 4 minutes at rest, 8 minutes during visual activation, 8 minutes after stimulation, and analyzed as described (Adanyeguh et al., 2015, Neurology 84: 490-495 and Mochel et al., 2012, Mov Disord. 27: 907-910). The ratio of Pi/PCr was calculated to determine the brain response to cortical activation.
# as §1
smiles,measurement,setting,value
CCCCCCC(=O)OCC(COC(=O)CCCCCC)OC(=O)CCCCCC [triheptanoin],tolerability,"[1]; 1 g/kg/day oral, all patients",well tolerated
same,paroxysmal manifestations,[1]; after treatment was resumed,dropped significantly
same,non-epileptic paroxysmal manifestations (FIG. 1),"[1]; treated 2 months and on resumption, p<0.05",significant reduction
same,average number of dystonic events,"[1]; treated 2 months, 1 g/kg/day oral, n=6, baseline 16 (±19, 1-54)",2
same,average number of paroxysmal manifestations,"[1]; treated 2 months, 1 g/kg/day oral, n=6, baseline average 31 (±28, 10-85), p=0.028","3 (±3, 0-7)"
same,performance during the 6MWT and NHPT,[1]; treatment phase,unchanged
same,CGI-I scale,"[1]; treatment phase, all patients",much improved
same,fatigue score,"[1]; treatment phase, did not reach significance",tended to improve
same,fatigue score,[1]; withdrawal phase,worsened
same,average number of dystonic events,"[1]; withdrawal phase, 2 months",13
same,average number of paroxysmal manifestations,"[1]; withdrawal phase, 2 months, p=0.043",24
same,CGI-I scale,"[1]; withdrawal phase, five out of six patients",much worse
same,f-MRS bioenergetics profile,"[2]; after 2 months on triheptanoin, ANOVA p=0.014, patients >15 years, n=5",corrected; also recorded: normalized
same,f-MRS profile,[2]; after treatment withdrawal,came back abnormal
